From US20250179481A1, “COMPOSITIONS AND METHODS FOR TARGETING, EDITING, OR MODIFYING GENES” (Celyntra Therapeutics SA, priority 2021, published 2025)

Key:
AAVS1 = assay: CAR insertion efficiency at AAVS1 in primary T-cells; assay type: cell-based, human
Method: T-cells were isolated from human peripheral blood obtained from healthy adults by immune-magnetic negative selection using the EasySep Human T-cell Isolation Kit ([sequence] Technologies). After isolation, T-cells were activated in 25 μL mL^−1 ImmunoCult Human CD3/CD28/CD2 T-Cell Activator ([sequence] Technologies) in ImmunoCult-XF T-Cell Expansion Medium ([sequence] Technologies) containing 12.5 ng mL^−1 Human Recombinant IL-2, 5 ng mL^−1 IL-7, and 5 ng mL^−1 IL-15 ([sequence] Technologies) and seeded at 1.0×10^6 cells mL^−1. Until transfection 48 hours later, the cells were cultured at 37° C., in 5% CO2 incubators.
Donor templates comprising site-specific homology arms, respective promoter, and respective gene (GFP or Hu19 scFv-CD8a-CD28-CD3ζ CAR) were amplified from corresponding pTwist Ampicillin high-copy plasmids (Twist Bioscience) using homology arms-specific PCR primers. […] Purified HDR templates were collected and quantified on NanoDrop One Microvolume UV-Vis Spectrophotometer (ThermoFisher Scientific). […] HDR templates were collected, diluted, and concentrations quantified using Qubit dsDNA HS Assay Kit (ThermoFisher Scientific). […]

primary Pan-T donors = conditions: primary Pan-T cells, RNP + ssODN, M3814 for 24 hours after transfection
Method: The targeted ssODN template (Table 11) was transfected with RNPs in three primary Pan-T donors. Cell pools were harvested post recovery for genotypic evaluation (i.e. modification incorporation via NGS) and also functional analysis (FACS staining).
Conditions were the same as Example 1, and in addition after transfection the cells were treated with the HDR enhancer M3814 for 24 hours to block the NHEJ pathway and 5 thereby increase the incorporation of the ssODN at the on-target side.

[1] = tested on: PDCD1, TIM3, LAG3, TIG1T, CTLA4, PTPN6, PTPN11 and CD247; assay: gNA screen: INDEL frequency at eight loci in Jurkat T-cell leukemia cell line; assay type: cell-based, human; conditions: gNAs adjacent to all YTTN PAM variants
Method: Ribonucleoprotein complexes (RNPs) were generated by incubating respective guide nucleic acids (gNAs) with MAD7 in the molar ratio of 3:2 gNA: MAD7 for 15 minutes at room temperature immediately before transfection. For Jurkat experiments, the RNP complexes were generated by mixing the respective gNA ([…]), MAD7 ([…]), and nuclease-free water, unless otherwise stated.
Lonza 4D Nucleofector with Shuttle unit (V4SC-2960 Nucleocuvette Strips) was used for transfection, following the manufacturer's instructions. […]
Extracted genomic DNA was quantified using the NanoDrop (ThermoFisher Scientific). […] The DNA was eluted from the beads with nuclease-free water and the size of the purified amplicons analyzed on a 2% agarose E-gel using the E-gel electrophoresis system (ThermoFisher Scientific). In the second PCR, unique pairs of Illumina-compatible indexes (Nextera XT Index Kit v2) were added to the amplicons using the KAPA HiFi HotStart Ready Mix (Roche). […] Sizes of the purified DNA fragments were validated on a 2% agarose gel using the E-gel electrophoresis system (ThermoFisher Scientific), quantified using Qubit dsDNA HS Assay Kit (Thermo Fisher) and then pooled in equimolar concentrations. […] The final library was sequenced on Illumina MiSeq System using the MiSeq Reagent Kit v.2 (300 cycles, […], paired-end reads). […]

AAVS1 locus = assay: INDEL frequency at the AAVS1 locus in Jurkat cells; assay type: cell-based, human; conditions: MAD7 RNP
From the text: The Jurkat T-cell leukemia cell line was used to evaluate the transgene insertion and expression efficiency using CRISPR-MAD7 RNP complexes. […] Specifically. […] Dark grey bars represent mean INDEL frequency using crAAVS1. Light grey bars represent mean modification frequency using crIDTneg (IDT). The HDR inserts comprised eight promoters (Table 4) differing in both size and promoter strength to drive GFP expression (FIG. 21). […] Specifically. […] HDR templates consisting of eight different promoters and flanked with symmetric homology arms of 500 base pairs in the amount of 0.5 μg μL^−1 were used. Size of promoters in base pairs: CMV, 1400; SCP, 970; CMVe-SCP, 1270; CMVmax, 1830; JET. 1100; CAG, 2600; PGK, 1410; EF-1a, 2090. Dark grey bars and circles present mean insertion frequency and cell viability using crAAVS1. Light grey bars represent mean insertion frequency and cell viability using crIDTneg (IDT).

CD247 = assay: gNA validation: frameshift (ORF disruption) frequency, CD247; assay type: cell-based, human; conditions: Jurkat, CRISPResso2 ORF analysis
Method: Initial quality assessment of the obtained reads was performed with FastQC36. The sequencing data were aligned and analyzed with the CRISPResso2 software, using CRISPRessoBatch command with the parameters—cleavage_offset 1—quantification_window_size 10—quantification_window_center 1—expand_ambiguous_alignments for the INDEL frequency analysis. For the ORF disruption analysis, CRISPRessoBatch command with the parameters—cleavage_offset 1—coding_seq <EXON_SEQ>—quantification_window_size 0—quantification_window_center 1—expand_ambiguous_alignments was used. Modification rates from the CRISPResso2 software output were analyzed in Excel.
(§1) High-efficiency gNAs identified in our initial analysis were validated by assaying INDEL frequency for the top three or five gNAs for each of the selected immunologically relevant genes (FIG. 15). […] Alternating grey and white zones on the plot represent groups of three to five high-efficiency gNAs per locus. […] Using the CRISPresso2 software, the degree of open reading frame (ORF) disruption for each of the validated gNAs was estimated (FIG. 15). In addition, for four high-efficiency gNAs targeting three different exons at the PDCD1 locus, surface expression of the PDCD1 protein was measured by flow cytometry 4, 7, and 11 days post-transfection (data not shown).
Average fraction of INDELs leading to frameshifts (dashed line) is approx. 66%. […]

PDCD1 protein = assay: Surface expression of the PDCD1 protein by flow cytometry in Jurkat cells; assay type: cell-based, human; conditions: flow cytometry 4, 7 and 11 days post-transfection, crPDCD1_2 value at day 4, same at day 11
Method: For detection of PDCD1 knock-out efficiency, approx. 250,000 Jurkat cells per sample were transferred onto 96-well V-bottom cell culture plates and assessed following a series of consecutive washing and staining steps. The first step included centrifuging the cells at 300 g for 5 minutes at 4° C., and discarding the supernatant. Afterwards, the cells were stained using 100 μL Cell Staining Buffer (Biolegend) with APC/Cyanine7 anti-human CD279 (PD-1) antibody (1:100: Biolegend) and incubated for 30 minutes at 4° C., in the dark. The cells were then centrifuged at 300 g for 5 minutes at 4° C., and the supernatant discarded. The next step included two repeats of centrifugation at 300 g for 5 minutes at 4° C., supernatant removal, and cell washing in 150 μL ice-cold Cell Staining Buffer (Biolegend). In the final step, the cells were re-suspended in 100 μL Cell Staining Buffer for the flow cytometry measurements (excitation: red laser; emission: […]).
as §1

[2] = tested on: predicted off-target sites; assay: INDEL frequency at predicted off-target sites (CasOFFinder, targeted deep sequencing) in Jurkat cells; assay type: cell-based, human; conditions: crPDCD1: <=4 mismatches, remaining gNAs <=3 mismatches, vs MOCK, Pairwise T-test
Method: Another consideration for selecting gNAs is the potential for off-target cleavage events. The list of validated gNAs was analyzed using the CasOFFinder software to predict potential off-target editing sites in the genome with up to four mismatches between the gNA and the target DNA sequence. Using the Bioconductor R packages, the predicted off-target sites were matched with the human gene database, and those sites that targeted exons and introns within the genes were extracted. Afterwards, the degree of editing activity at these sites was examined by targeted next-generation sequencing, more specifically, at 25 predicted off-target sites for the top-two PDCD1 gNAs, i.e., crPDCD1_1 and crPDCD1_2. […] INDEL frequency at 43 putative off-target sites with up to three mismatches between gNA and target DNA sequence were assayed for the top-two gNAs targeting seven remaining genes (i.e., TIM3, LAG3, TIG1T, CTLA4, PTPN6, PTPN11, and CD247; spacer sequences in Table 5). […] Specifically. FIGS. 18-19 show INDEL frequency of MAD7 (n=3; Mean±SD) in T-cell leukemic cell line at predicted off-target sites analyzed by targeted deep sequencing. For crPDCD1. INDEL frequency was analyzed at the putative off-target editing sites with ≤4 mismatches between the gNA and target DNA sequence, and with ≤3 mismatches on the remaining gNAs.

## COc1ccc([C@@H](O)c2cc(-c3ncnc4cc(N5CCOCC5)ccc34)c(F)cc2Cl)nn1 [M3814]
AAVS1
  more efficient CAR insertion than other experiments: ~5 times
Primary Pan-T donors
  increase in perfect HDR: 1.5 fold

## MAD7: type V-A Cas nuclease, SEQ ID NO: 37
[1]
  editing by PAM motif: editing with all eight combinations of YTTN PAM

## crAAVS1: highly active gNA targeting the AAVS1 safe-harbor locus, spacer sequence in Table 5 (guide TTAGGATGGCCTTCTCCGACG; spacer only, further chemistry not given here)
AAVS1 locus
  INDEL frequency at the AAVS1 locus: highly active

## crCD247_4: validated high-efficiency gNA, CD247 (guide CTAGCAGAGAAGGAAGAACCC; spacer only, further chemistry not given here)
CD247
  frameshifts frequency (fraction of frameshift to INDEL): 97%

## crPDCD1_2: gNA targeting the PDCD1 gene at the extracellular domain of the protein (guide TCTGCAGGGACAATAGGAGCC; spacer only, further chemistry not given here)
PDCD1 protein
  surface expression of the PDCD1 protein: 10%
[2]
  INDEL frequency at predicted off-target sites: low-level off-target activity

## poly-L-glutamic acid [PGA]
AAVS1; primary T-cells, P<=0.05, data not shown
  CAR insertion efficiency, treatment with PGA compared to without PGA: higher
